For one test, the target named is Cbl-b (Homo sapiens (Human), UniProt Q13191). Nature of the test: Cbl-b LCK Ub TR-FRET assay (Cbl-b Lck HTRF). In kind it is biochemical. The procedure, abridged: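 Biotin-Cbl-b preincubated with compound (10-point 3-fold series) 60 min, then His-LCK with 1 mM ATP (2× mixture) added for 90 min at room temperature. Ubiquitination detected by TR-FRET using HA-ubiquitin/UBE2D2 adduct, anti-HA-D2 and streptavidin-Eu; IC50 normalised to no-LCK and DMSO controls.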

In another test the target is c-Cbl (Homo sapiens (Human), UniProt P22681). Nature of the test: C-Cbl LCK Ub TR-FRET assay (c-cbl Lck HTRF). The test is classed as biochemical. The following applies: for (fold-selectivity): C-cbl Lck HTRF IC50 relative to Cbl-b Lck HTRF IC50. The procedure, abridged:
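Detection reagents added, brief spin, 20 min RT. IC50 fit normalized to no-LCK (low) and DMSO (high) controls.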

The structures appear in SMILES notation.

Chain of Cbl-b (Q13191 40-426): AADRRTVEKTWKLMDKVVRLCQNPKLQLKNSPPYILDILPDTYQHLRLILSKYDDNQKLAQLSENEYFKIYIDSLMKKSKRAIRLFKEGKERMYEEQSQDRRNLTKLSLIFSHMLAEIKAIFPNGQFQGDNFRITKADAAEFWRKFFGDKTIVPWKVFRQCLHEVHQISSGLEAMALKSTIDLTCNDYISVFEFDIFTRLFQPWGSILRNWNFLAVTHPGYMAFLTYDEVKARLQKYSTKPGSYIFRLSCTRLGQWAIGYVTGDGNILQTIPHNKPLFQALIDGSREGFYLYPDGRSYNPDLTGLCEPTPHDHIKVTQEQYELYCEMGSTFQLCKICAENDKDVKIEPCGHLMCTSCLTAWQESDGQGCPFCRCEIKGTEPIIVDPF
Chain of c-Cbl (P22681 47-435): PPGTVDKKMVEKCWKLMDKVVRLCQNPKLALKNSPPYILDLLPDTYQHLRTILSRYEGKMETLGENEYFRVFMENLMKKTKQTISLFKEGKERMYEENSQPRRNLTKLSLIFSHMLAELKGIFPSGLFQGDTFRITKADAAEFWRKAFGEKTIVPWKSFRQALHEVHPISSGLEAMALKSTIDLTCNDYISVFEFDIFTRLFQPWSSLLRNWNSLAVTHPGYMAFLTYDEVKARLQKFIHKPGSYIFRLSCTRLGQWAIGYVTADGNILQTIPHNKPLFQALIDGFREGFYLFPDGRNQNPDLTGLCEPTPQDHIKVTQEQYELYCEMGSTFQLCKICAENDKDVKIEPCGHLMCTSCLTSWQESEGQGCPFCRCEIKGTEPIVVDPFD

At Cbl-b, `CC(C)[C@H]1CN(C)CCN1Cc1cc2c(c(C(F)(F)F)c1)CN(c1cc(C3([C@H](F)c4nncn4C)CCC3)cc(NCC3CC3)n1)C2=O` [Compound 279, 2-(6-((cyclopropylmethyl)amino)-4-(1-((S)-fluoro(4-methyl-4H-1,2,4-triazol-3-yl)methyl)cyclobutyl)pyridin-2-yl)-6-(((S)-2-isopropyl-4-methylpiperazin-1-yl)methyl)-4-(trifluoromethyl)isoindolin-1-one] displayed an IC50 of 7.9 nM. Also, on c-Cbl, half-maximal inhibition (IC50) was put at 10 nM and the “(fold-selectivity)” value is reported as “(1.4x)”.
At Cbl-b, `COCC1CCN(Cc2cc3c(c(C(F)(F)F)c2)CN(c2cccc(C4([C@H](F)c5nncn5C)COC4)c2)C3=O)CC1` [Compound 146, (S)-2-(3-(3-(fluoro(4-methyl-4H-1,2,4-triazol-3-yl)methyl)oxetan-3-yl)phenyl)-6-((4-(methoxymethyl)piperidin-1-yl)methyl)-4-(trifluoromethyl)isoindolin-1-one] displayed an IC50 of 430 nM. Besides, at c-Cbl, it took 480 nM to reach half-maximal inhibition (IC50) and the “(fold-selectivity)” value is recorded as 1.1x.
In the same order, the values of `Cn1cnnc1[C@@H](F)C1(c2cccc(N3Cc4c(cc(CN5CC(C)(CCl)C5)cc4C(F)(F)F)C3=O)c2)COC1` [Compound 104, (S)-6-((3-(chloromethyl)-3-methylazetidin-1-yl)methyl)-2-(3-(3-(fluoro(4-methyl-4H-1,2,4-triazol-3-yl)methyl)oxetan-3-yl)phenyl)-4-(trifluoromethyl)isoindolin-1-one] are 48 nM, 89 nM and 1.9x.
The corresponding values for `Cn1cc(CNc2cc(C3(Cc4nncn4C)CCC3)cc(N3Cc4c(cc(CNC5(C)CCC5)cc4C(F)(F)F)C3=O)n2)cn1` [Compound 313, 2-(6-(((1-methyl-1H-pyrazol-4-yl)methyl)amino)-4-(1-((4-methyl-4H-1,2,4-triazol-3-yl)methyl)cyclobutyl)pyridin-2-yl)-6-(((1-methylcyclobutyl)amino)methyl)-4-(trifluoromethyl)isoindolin-1-one] are 24 nM, 23 nM and “(0.95x)”.
The corresponding values for `Cn1cnnc1CC1(c2cccc(N3Cc4c(cc(CNC5(C)COC5)cc4C(F)(F)F)C3=O)c2)CC(F)(F)C1` [Compound 332, 2-(3-(3,3-difluoro-1-((4-methyl-4H-1,2,4-triazol-3-yl)methyl)cyclobutyl)phenyl)-6-(((3-methyloxetan-3-yl)amino)methyl)-4-(trifluoromethyl)isoindolin-1-one] are 28 nM, 34 nM and “(1.2x)”.
On to `CC(C)[C@H]1CN(C)CCN1Cc1cc2c(c(C(F)(F)F)c1)CN(c1cccc(C3([C@@H](F)c4nncn4C(F)F)COC3)c1)C2=O` [Compound 267, 2-(3-(3-((R)-(4-(difluoromethyl)-4H-1,2,4-triazol-3-yl)fluoromethyl)oxetan-3-yl)phenyl)-6-(((S)-2-isopropyl-4-methylpiperazin-1-yl)methyl)-4-(trifluoromethyl)isoindolin-1-one], for which inhibition at Cbl-b was half-maximal at 17 nM (IC50). On c-Cbl, the IC50 came to 17 nM and the “(fold-selectivity)” value was “(1.0x)”.
`Cn1cnnc1[C@H](F)C1(c2cccc(N3Cc4c(cc(CNCC5CC5)cc4C(F)(F)F)C3=O)c2)CC(F)(F)C1` [Compound 449, (R)-6-(((cyclopropylmethyl)amino)methyl)-2-(3-(3,3-difluoro-1-(fluoro(4-methyl-4H-1,2,4-triazol-3-yl)methyl)cyclobutyl)phenyl)-4-(trifluoromethyl)isoindolin-1-one] showed an IC50 on Cbl-b of 20 nM. In addition, at c-Cbl, the IC50 is 21 nM and the “(fold-selectivity)” value is given as “(1.1x)”.

For the origin of these results see patent US20250230147A1, “LACTAMS AS CBL-B INHIBITORS” (Genentech, Inc., priority 2021, published 2025).
